Here are results for three molecules from paper PMC8329713, “The identification and structural analysis of potential 14-3-3 interaction sites on the bone regulator protein Schnurri-3” (Acta Crystallographica. Section F, Structural Biology …, 2021).

Non-standard residues stand in square brackets, D forms with d. No end group written: not given here. pS = N[C@@H](COP(=O)(O)O)C(=O)O

The subject of one test is 14-3-3 isoforms. Nature of the test: Fluorescence polarization (FP) binding assay, all 14-3-3 isoforms taken together. Also on record: species or system human. As to conditions: FITC-labelled peptide 10 nM, only a modest FP signal at the highest concentrations, not possible to calculate Kd values. As to the method: (§1) 14-3-3 isoforms γ, τ, σ, ɛ, η, ζ, β (full length) and 14-3-3σΔC (residues 231–248 deleted) were expressed with a His6 tag in Escherichia coli NiCo21(DE3) competent cells from a pPRoeX-Htb vector in 2×TY medium. Purification was carried out by affinity chromatography on nickel columns (HisTrap HP, 5 ml). The tags were cleaved with TEV protease. The proteins were then loaded again onto nickel columns to remove any noncleaved protein. A final purification step was performed by loading the proteins onto a size-exclusion chromatography column (HiLoad 26/600 Superdex 75 pg) equilibrated in 20 mM Tris–HCl pH 7.5, 150 mM NaCl, 2 mM DTT. All purification steps were performed on an ÄKTApure protein-purification system (Cytiva). The full-length 14-3-3 isoforms were used in biophysical assays and the 14-3-3σΔC construct was used for crystallographic purposes. […]
(§2) Fluorescence polarization (FP) binding assays were carried out in Corning 384-well 3575 plates, serially diluting (twofold) the 14-3-3 isoforms in the presence of 10 nM FITC-labelled peptides. […] The data were collected on a PHERAstar FSX plate reader (BMG Labtech) with an excitation wavelength of 485 nm and an emisson wavelength of 520 nm. […] The data were analysed using the MicroCal PEAQ-ITC Analysis Software (Malvern).

The target of test [1] is T1, 14-3-3σ (Homo sapiens, UniProt P31947).
T1 construct: The full-length 14-3-3 isoforms were used in biophysical assays; His6 (cleaved yes); made in house; host or cells: Escherichia coli NiCo21(DE3)
T1 sequence (P31947 1-248): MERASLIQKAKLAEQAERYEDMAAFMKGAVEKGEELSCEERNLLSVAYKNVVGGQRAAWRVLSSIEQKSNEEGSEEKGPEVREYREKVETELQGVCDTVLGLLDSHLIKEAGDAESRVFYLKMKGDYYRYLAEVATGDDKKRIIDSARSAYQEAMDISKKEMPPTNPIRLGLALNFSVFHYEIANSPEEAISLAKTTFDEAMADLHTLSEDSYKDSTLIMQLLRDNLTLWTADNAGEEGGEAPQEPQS
Briefly: X-ray protein crystallography with 14-3-3σΔC. As to conditions: crystal structures with 14-3-3σΔC, PDB 7b13 (SHN3pS542) and 7b15 (SHN3pT869). Here is the method:
14-3-3 isoforms γ, τ, σ, ɛ, η, ζ, β (full length) and 14-3-3σΔC (residues 231–248 deleted) were expressed with a His6 tag in Escherichia coli NiCo21(DE3) competent cells from a pPRoeX-Htb vector in 2×TY medium. Purification was carried out by affinity chromatography on nickel columns (HisTrap HP, 5 ml). The tags were cleaved with TEV protease. The proteins were then loaded again onto nickel columns to remove any noncleaved protein. A final purification step was performed by loading the proteins onto a size-exclusion chromatography column (HiLoad 26/600 Superdex 75 pg) equilibrated in 20 mM Tris–HCl pH 7.5, 150 mM NaCl, 2 mM DTT. All purification steps were performed on an ÄKTApure protein-purification system (Cytiva). The full-length 14-3-3 isoforms were used in biophysical assays and the 14-3-3σΔC construct was used for crystallographic purposes.
The peptides SHN3pS542 (LLRSHpS542MPSAAC) and SHN3pT869 (PDRPDpT869EPEPPP) were ordered with a purity of >95% from GenScript in an N-terminally acetylated version and an N-terminally FITC-Ahx-labelled version.
For protein crystallization, a C-terminally truncated version of 14-3-3σ was used (14-3-3σΔC; deletion of the 17 C-terminal amino acids; Schumacher et al., 2010[▸]). […]

The target in test [2] is T1, 14-3-3σ. Nature of the test: Isothermal titration calorimetry (ITC) under reducing conditions, 14-3-3σ. Type of test: binding. As to conditions: FITC-labelled peptide titrated into 14-3-3σ, 18 injections of 2 µl, 25°C, 50 mM Tris pH 7.5, 150 mM NaCl, 5 mM MgCl2, 2 mM 2-mercaptoethanol, 0.05%(v/v) Tween-20. As to the method:
as §1, §2

The next test deals with T2, 14-3-3γ (full length) (human, UniProt P61981 1-247).
T2 construct: 14-3-3 protein gamma, human, full length; Expressed from a pPRoeX-Htb vector; also called 14-3-3 isoform γ; source: E. coli NiCo21(DE3), purified (nickel column, TEV cleavage, second nickel column, SEC)
T2 sequence (looked up): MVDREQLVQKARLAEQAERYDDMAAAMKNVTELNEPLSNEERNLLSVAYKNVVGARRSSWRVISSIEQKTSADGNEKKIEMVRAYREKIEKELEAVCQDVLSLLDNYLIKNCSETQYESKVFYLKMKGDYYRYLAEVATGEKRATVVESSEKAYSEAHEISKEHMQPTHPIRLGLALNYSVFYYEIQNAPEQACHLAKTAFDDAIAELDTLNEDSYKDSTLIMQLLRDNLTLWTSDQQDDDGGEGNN
Briefly: ITC; peptide titrated into the cell containing the 14-3-3 protein, 18 injections of 2 µl, 25°C; 50 mM Tris pH 7.5, 150 mM NaCl, 5 mM MgCl2, 2 mM 2-mercaptoethanol, 0.05% Tween-20 (reducing conditions). Conditions: both partners purified. (In general: ITC needs no label: the signal is the heat of the interaction.)

The target in another test is T3, 14-3-3σ (full length) (human, UniProt P31947 1-248).
T3 construct: 14-3-3 protein sigma, human, full length; Expressed from a pPRoeX-Htb vector; also called 14-3-3 isoform σ; the σ isoform; source: E. coli NiCo21(DE3), purified (nickel column, TEV cleavage, second nickel column, SEC)
T3 sequence (looked up): T1 sequence (P31947 1-248)
The test is described as above. As to conditions: both partners purified.

Take “PDRPDpT869EPEPPP [SHN3pT869, synthetic phosphopeptide PDRPDpT869EPEPPP derived from human Schnurri-3 (SHN3)]”: the “binding to 14-3-3 isoforms (in words)” value in the test with 14-3-3 isoforms is reported as “very weak 14-3-3 binder”. Moreover, the “polar contacts with 14-3-3σ residues” value at 14-3-3σ [1] is “Polar contacts are established between Glu872 and Glu870 of SHN3pT869 and Asn50, Lys122, Lys49 and Asn175 on the C-terminal side of the peptide and between Asp868 and Pro867 of SHN3pT869 and Asn226 on the N-terminal side of the peptide”.

Take “LLRSHpS542MPSAAC [SHN3pS542-FITC, N-terminally FITC-Ahx-labelled version of SHN3pS542, as used in the FP assay]”: binding on 14-3-3σ [2] was put at a Kd of 4.8 ± 0.8 µM.

B1: SHN3pS542 peptide, N-terminally acetylated (peptide)
peptide: Ac-LLRSH[pS]MPSAAC
modifications: also: phosphoserine at 542, position not mapped
notes: Schnurri-3 (SHN3, transcription factor HIVEP3), human, 12-mer around phosphorylated Ser542; also called the acetylated peptide; source: synthetic peptide, bought: GenScript (purity >95%)
Take B1: the Kd in the test with 14-3-3γ (full length) is 690 ± 150 nM; with 14-3-3σ (full length), 5.8 ± 1.3 µM.

Broadly, the Kd is the free concentration of one partner at which half of the binding sites on the other are occupied at equilibrium, for simple one-to-one binding.
